Laboratory results published in US20200237759A1, “DOSAGE REGIME AND METHOD FOR TREATING PULMONARY ARTERIAL HYPERTENSION” (Altavant Sciences GmbH, priority 2019, published 2020).
Entries after “also recorded” stand apart in the source; their conditions may differ.

Experiments:
[1] = Part 1 SAD urine pharmacokinetics (urinary excretion, renal clearance); type: in vivo, human
Experimental: Renal clearance of KAR5417 was calculated from the area under the plasma time concentration curve (AUC0-96) for KAR5417 and the amount of KAR5417 recovered in urine (Table 21).

[2] = test system: plasma 5-HIAA (a PD marker of 5-HT synthesis); assay: Part 2 MAD biomarker: plasma 5-HIAA change from Day 1; type: in vivo, human
Source text: Biomarkers were to be evaluated in Part 2 by measuring concentrations of serotonin (5-hydroxytryptamine [5-HT]) in serum and 5-hydroxyindoleacetic acid (5-HIAA) in plasma and urine. As well, the relationship of biomarkers to PK parameters was to be evaluated.
The biomarker analysis was to be based on the Biomarker Population (all subjects with evaluable biomarker measurements at baseline [Day 1 predose] and at least one after dosing [Day 7 or Day 14]).
Biomarker data were to be collected only in Part 2. The following biomarkers were to be analyzed: • Serum 5-HT • Plasma 5-HIAA • Urine 5-HIAA/24 hours (as measured, adjusted, estimated, and per gram creatinine)
The a priori primary biomarker endpoint was to be the change in plasma 5-HIAA concentration on Day 14 from Day 1.
Linear regression was to be performed using biomarker changes, absolute and relative (%), from Day 1, at predose on Day 7 or Day 14 versus AUC0-24, Cmax, and Cmin in corresponding study days. The slopes and corresponding 95% confidence intervals (CIs) were to be tabulated.
Summary statistics (mean, standard deviation [SD], median, minimum [Min], and maximum [Max]) were to be tabulated for each biomarker, by Cohort, with absolute and relative (%) changes from Day 1 predose.
The values were to be tabulated with P values testing whether the difference of changes was equal to 0.
The biomarker portion of the study was conducted in Part 2 MAD using the Biomarker Population. The biomarkers evaluated were serum 5-HT and plasma 5-HIAA, as well as urine 5-HIAA/24 hours (as measured, adjusted, estimated, and per gram creatinine). Urinary 5-HIAA was determined by a validated (21 C.F.R. 58, GLP-compliant) method using liquid chromatographic separation and tandem mass spectrometry detection.
The Biomarker Population consisted of all subjects with evaluable baseline (Day 1 predose) and at least one postdose (Day 7 or Day 14) biomarker measurements.
Biomarker data were analyzed for each KAR5585 dose separately, for all KAR5585 doses pooled, and for all placebo subjects pooled. […]

[3] = Part 1 SAD plasma pharmacokinetics of KAR5585 and KAR5417 after a single oral dose of KAR5585 (fasting; fed food effect); conditions: for AUC0-inf Geometric Mean / AUC0-tau Geometric Mean / Cmax Geometric Mean: 400 mg KAR5585 single oral dose
Experimental: Food effect was to be evaluated in Part 1, Period 2. Part 2 was permitted to begin before Part 1 was completed and, in each part, the data from each dose Cohort were to be reviewed for safety before the next dose Cohort was enrolled.
Part 1 had 6 Cohorts of 12 subjects each (for a total of 72 subjects) and Part 2 had 4 Cohorts of 12 subjects each (for a total of 48 subjects). In Part 1, the 12 subjects in Cohort 3 (400 mg) were studied twice, once under fasting conditions (Period 1) and once under fed conditions (Period 2) for food-effect assessment.
Pharmacokinetic data were to be summarized descriptively.

[4] = 100 mg to 700 mg single dose, 7-fold increase in dose
[5] = 700 mg to 2000 mg single dose, 2.86-fold increase in dose
[6] = KAR5585 100 mg single oral dose, fasted, Cohort 1
[7] = KAR5585 200 mg single oral dose, fasted, Cohort 2
[8] = KAR5585 400 mg single oral dose, fasted, Cohort 3A
[9] = KAR5585 400 mg single oral dose, fed, Cohort 3B
[10] = KAR5585 700 mg single oral dose, fasted, Cohort 4
[11] = KAR5585 1200 mg single oral dose, fasted, Cohort 5
[12] = KAR5585 2000 mg single oral dose, fasted, Cohort 6

Compound: CCOC(=O)[C@@H]1CC2(CCN(c3cc(O[C@H](c4ccc(Cl)cc4-c4ccccc4)C(F)(F)F)nc(N)n3)CC2)CN1 [KAR5585, (S)-ethyl 8-(2-amino-6-((R)-1-(5-chloro-[1,1′-biphenyl]-2-yl)-2,2,2-trifluoroethoxy)pyrimidin-4-yl)-2,8-diazaspiro[4.5]decane-3-carboxylate]
- amount excreted (Ae) in urine, of the administered dose ([1]; single oral KAR5585, all dose levels): less than 0.004%
- quantifiability in urine samples ([1]; single oral KAR5585, almost all subjects): could not be quantified in urine samples; also recorded: not quantifiable in urine in almost all subjects
- mean percent difference of change from Day 1 in plasma 5-HIAA between KAR5585 and placebo ([2]; Day 7, any dose group): not significant
- mean difference of changes from Day 1 to Day 14 in plasma 5-HIAA compared to placebo ([2]; each dose group and all doses combined, Day 14): statistically significant in favor of KAR5585
- increase in mean AUC0-24 [3, 4]: 8.7 fold
- increase in mean AUC0-inf [3, 4]: 8.8 fold
- increase in AUC0-24 [3, 5]: 1.86 fold
- increase in AUC0-inf [3, 5]: 1.78 fold
- AUC0-inf Geometric Mean ([3]; Cohort 3A (Fasting)): 288 ng·h/mL
- AUC0-tau Geometric Mean ([3]; Cohort 3A (Fasting)): 176 ng·h/mL
- Cmax Geometric Mean ([3]; Cohort 3A (Fasting)): 42 ng/mL
- AUC0-inf Geometric Mean ([3]; Cohort 3B (Fed)): 903 ng·h/mL
- AUC0-tau Geometric Mean ([3]; Cohort 3B (Fed)): 854 ng·h/mL
- Cmax Geometric Mean ([3]; Cohort 3B (Fed)): 165 ng/mL
- AUC0-12 (Mean) [3, 6]: 48.1 ng·h/mL
- AUC0-24 (Geo. Mean) [3, 6]: 47.5 ng·h/mL
- AUC0-∞ (Geo. Mean) [3, 6]: 47.5 ng·h/mL
- Cmax/D Geo. Mean [3, 6]: 0.132 (ng/mL)/mg
- Cmax/D Mean [3, 6]: 0.139 (ng/mL)/mg
- V2/F Geo. Mean [3, 6]: 5190 L
- V2/F Mean [3, 6]: 5680 L
- t1 Geo. Mean [3, 6]: 1.71 h
- t1 Mean [3, 6]: 1.89 h
- AUC0-12 (Geo. Mean) [3, 7]: 83.3 ng·h/mL
- AUC0-24 (Geo. Mean) [3, 7]: 93.4 ng·h/mL
- AUC0-∞ (Geo. Mean) [3, 7]: 95.3 ng·h/mL
- Cmax/D Geo. Mean [3, 7]: 0.0875 (ng/mL)/mg
- Cmax/D Mean [3, 7]: 0.0961 (ng/mL)/mg
- V2/F Geo. Mean [3, 7]: 9610 L
- V2/F Mean [3, 7]: 10300 L
- t1 Geo. Mean [3, 7]: 3.17 h
- t1 Mean [3, 7]: 3.63 h
- AUC0-24 (Geo. Mean) [3, 8]: 283 ng·h/mL
- AUC0-∞ (Geo. Mean) [3, 8]: 288 ng·h/mL
- Cmax/D Geo. Mean [3, 8]: 0.105 (ng/mL)/mg
- Cmax/D Mean [3, 8]: 0.132 (ng/mL)/mg
- V2/F Geo. Mean [3, 8]: 8100 L
- V2/F Mean [3, 8]: 8330 L
- t1 Geo. Mean [3, 8]: 4.04 h
- t1 Mean [3, 8]: 4.08 h
- AUC0-24 (Geo. Mean) [3, 9]: 876 ng·h/mL
- AUC0-tau Geo. Mean [3, 9]: 854 ng·h/mL
- AUC0-∞ (Geo. Mean) [3, 9]: 903 ng·h/mL
- Cmax (Geo. Mean) [3, 9]: 165 ng/mL
- Cmax/D Geo. Mean [3, 9]: 0.413 (ng/mL)/mg
- Cmax/D Mean [3, 9]: 0.422 (ng/mL)/mg
- V2/F Geo. Mean [3, 9]: 2730 L
- V2/F Mean [3, 9]: 2780 L
- t1 Geo. Mean [3, 9]: 4.26 h
- t1 Mean [3, 9]: 4.45 h
- AUC0-12 (Mean) [3, 10]: 392 ng·h/mL
- Cmax (Geo. Mean) [3, 10]: 95.2 ng/mL
- Cmax/D Geo. Mean [3, 10]: 0.136 (ng/mL)/mg
- Cmax/D Mean [3, 10]: 0.142 (ng/mL)/mg
- V2/F Geo. Mean [3, 10]: 8390 L
- V2/F Mean [3, 10]: 9120 L
- t1 Geo. Mean [3, 10]: 3.42 h
- t1 Mean [3, 10]: 3.46 h
- tmax (Median) [3, 10]: 1.75 h
- AUC0-12 (Geo. Mean) [3, 11]: 356 ng·h/mL
- AUC0-12 (Mean) [3, 11]: 402 ng·h/mL
- AUC0-24 (Geo. Mean) [3, 11]: 400 ng·h/mL
- AUC0-tau Mean [3, 11]: 364 ng·h/mL
- AUC0-∞ (Geo. Mean) [3, 11]: 406 ng·h/mL
- Cmax/D Geo. Mean [3, 11]: 0.0568 (ng/mL)/mg
- Cmax/D Mean [3, 11]: 0.0692 (ng/mL)/mg
- V2/F Geo. Mean [3, 11]: 14500 L
- V2/F Mean [3, 11]: 16900 L
- t1 Geo. Mean [3, 11]: 3.40 h
- t1 Mean [3, 11]: 3.58 h
- Cmax (Geo. Mean) [3, 12]: 95.1 ng/mL
- Cmax (Mean) [3, 12]: 104 ng/mL
- Cmax/D Geo. Mean [3, 12]: 0.0475 (ng/mL)/mg
- Cmax/D Mean [3, 12]: 0.0522 (ng/mL)/mg
- V2/F Geo. Mean [3, 12]: 20600 L
- V2/F Mean [3, 12]: 25100 L
- t1 Geo. Mean [3, 12]: 4.76 h
- t1 Mean [3, 12]: 4.84 h
- tmax (Median) [3, 12]: 2.00 h
- time up to which concentrations remained above the LLOQ ([3]; single 100 mg KAR5585, fasting): up to 4 hours
- time up to which concentrations remained above the LLOQ ([3]; single 200 mg KAR5585, fasting): up to 12 hours
- time up to which concentrations remained above the LLOQ ([3]; single 400 mg KAR5585, fasting): up to 12 hours
- time up to which concentrations remained above the LLOQ ([3]; single 700 mg KAR5585, fasting): up to 12 hours
- time up to which concentrations remained above the LLOQ ([3]; single 1200 mg KAR5585, fasting): up to 12 hours
